Drawing on ChEMBL document CHEMBL1129090, “Potent fluoromethyl ketone inhibitors of recombinant human calpain I” (Bioorg Med Chem Lett, 1996), this text covers K obs / 1 for six compounds.

Structures are written as SMILES. *1 amine or outer side, *2 acyl side, *3 side chain or, on linkers, in order; H or OH if unused. Where a SMILES comes first, the peptide text is derived from it. [ ]: non-standard residue; d: D form. The star is where a group is joined. ξ: configuration not given here. ξF = NC(Cc1ccccc1)C(=O)O; Cbz = O=C(OCc1ccccc1)*; Boc = CC(C)(C)OC(=O)*; CO = O=C([*:1])[*:2]; NHBn = c1ccc(CN*)cc1; ξAbu = CCC(N)C(=O)O; CH2F = FC*

This assay deals with T1, Calpain-1 catalytic subunit (Homo sapiens) (UniProt P07384).
T1 sequence (whole entry): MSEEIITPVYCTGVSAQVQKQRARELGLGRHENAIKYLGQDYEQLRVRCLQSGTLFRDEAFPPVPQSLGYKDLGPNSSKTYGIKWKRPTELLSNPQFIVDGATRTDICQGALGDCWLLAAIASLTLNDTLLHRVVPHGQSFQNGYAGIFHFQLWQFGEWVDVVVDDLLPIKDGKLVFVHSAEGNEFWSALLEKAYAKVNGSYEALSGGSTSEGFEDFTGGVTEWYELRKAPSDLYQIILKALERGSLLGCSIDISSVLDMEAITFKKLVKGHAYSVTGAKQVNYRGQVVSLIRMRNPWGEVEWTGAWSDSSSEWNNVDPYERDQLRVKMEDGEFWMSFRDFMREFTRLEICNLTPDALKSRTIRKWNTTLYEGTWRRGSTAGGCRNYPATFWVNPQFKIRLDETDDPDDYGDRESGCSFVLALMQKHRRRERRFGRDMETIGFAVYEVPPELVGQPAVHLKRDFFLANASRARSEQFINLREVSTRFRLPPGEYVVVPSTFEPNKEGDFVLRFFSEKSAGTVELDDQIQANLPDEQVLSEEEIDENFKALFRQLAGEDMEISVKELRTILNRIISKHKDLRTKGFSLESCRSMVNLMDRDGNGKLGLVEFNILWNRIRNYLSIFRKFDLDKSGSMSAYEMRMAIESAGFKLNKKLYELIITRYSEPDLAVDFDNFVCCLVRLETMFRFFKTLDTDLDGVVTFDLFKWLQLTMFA
Briefly: Compound was tested for inhibitory activity against recombinant human Calpain 1.
As for `CC(C)C[C@H](NC(=O)OC(C)(C)C)C(=O)NC(Cc1ccccc1)C(=O)CF` (stereo partly drawn) (Boc-Leu-[ξF]-CH2F), the K obs / 1 stood at 68600 M⁻¹ s⁻¹.

Consider `CC(C)C[C@H](NS(=O)(=O)N1CCOCC1)C(=O)NC(Cc1ccccc1)C(=O)CF` (stereo partly specified), for which the K obs / 1 came to 67200 M⁻¹ s⁻¹. For `CC(C)C[C@H](NC(=O)OCc1ccccc1)C(=O)NC(Cc1ccccc1)C(=O)CF` (stereo partly drawn) (Cbz-Leu-[ξF]-CH2F), the K obs / 1 was determined as 136000 M⁻¹ s⁻¹. In the case of `CC(C)C[C@H](NC(=O)NCc1ccccc1)C(=O)NC(Cc1ccccc1)C(=O)CF` (stereo partly specified) ({NHBn-CO}-Leu-[ξF]-CH2F), the K obs / 1 worked out at 67200 M⁻¹ s⁻¹. On to `CC(C)C[C@H](NC(=O)[C@H]1O[C@@H]1C(=O)O)C(=O)NCCCCN=C(N)N`, for which the K obs / 1 worked out at 4700 M⁻¹ s⁻¹.

On to `CCC(NC(=O)[C@H](CC(C)C)NC(=O)OCc1ccccc1)C(=O)CF` (stereo partly drawn) (Cbz-Leu-[ξAbu]-CH2F), for which the K obs / 1 is 24200 M⁻¹ s⁻¹.
